Results: ChEMBL document CHEMBL5331097, “Synthesis and evaluation of a new class of MIF-inhibitors in activated macrophage cells and in experimental septic shock in mice” (Eur J Med Chem, 2023)
Activity calls are given as the source filed them. The rule behind the calls is not given here.

Columns and labels:
[1] = biological target: T1, Macrophage migration inhibitory factor (Homo sapiens, UniProt P14174); experiment: Inhibition of human recombinant MIF ketonase activity using phenylpyruvate as substrate
T1 sequence (P14174 whole entry): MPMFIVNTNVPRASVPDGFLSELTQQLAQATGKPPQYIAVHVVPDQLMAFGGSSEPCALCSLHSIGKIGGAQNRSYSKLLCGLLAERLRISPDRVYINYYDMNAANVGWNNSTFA

[2] = biological target: T1, Macrophage migration inhibitory factor; experiment: Inhibition of human recombinant MIF enolase activity using phenylpyruvate as substrate
[3] = system: RAW264.7; experiment: Reduction of macrophage activation in LPS induced mouse RAW264.7 cells assessed as NF-kappaB activation at 50 uM pretreated for 30 mins followed by LPS addition measured after 24 hrs; type: functional, cell-based; conditions: time 24.5 hrs
[4] = system: RAW264.7; experiment: Reduction of macrophage activation in LPS induced mouse RAW264.7 cells assessed as reduction in IL-6 production at 50 uM pretreated for 30 mins followed by LPS addition after 24 hrs by ELISA method; type: functional, cell-based; conditions: time 24.5 hrs
[5] = system: RAW264.7; experiment: Reduction of macrophage activation in LPS induced mouse RAW264.7 cells assessed as reduction in TNF-alpha production at 50 uM pretreated for 30 mins followed by LPS addition after 24 hrs by ELISA method; type: functional, cell-based; conditions: time 24.5 hrs
[6] = system: RAW264.7; experiment: Antiproliferative activity against LPS induced mouse RAW264.7 cells assessed as decrease in number of living cells at 50 uM pretreated for 30 mins followed by LPS addition measured after 24 hrs relative to control; type: functional; design: scale not given: the % may be the effect or the level left; conditions: time 24.5 hrs
[7] = system: RAW264.7; experiment: Antiinflammatory activity in LPS induced mouse RAW264.7 cells assessed as reduction of nitrite production at 50 uM pretreated for 30 mins followed by LPS addition measured after 24 hrs measured by Griess reagent method; type: functional, cell-based; conditions: time 24.5 hrs
[8] = system: RAW264.7; experiment: Antiinflammatory activity in LPS induced mouse RAW264.7 cells assessed as reduction of ROS production at 50 uM pretreated for 30 mins followed by LPS addition measured after 24 hrs measured by fluorescence based assay; type: functional, cell-based; conditions: time 24.5 hrs
[9] = system: RAW264.7; experiment: Reduction of macrophage activation in LPS induced mouse RAW264.7 cells assessed as NF-kappaB activation at 50 uM pretreated for 30 mins followed by LPS addition measured after 24 hrs relative to control; type: functional; design: scale not given: the % may be the effect or the level left; conditions: time 24.5 hrs
[10] = system: RAW264.7; experiment: Antiproliferative activity against LPS induced mouse RAW264.7 cells at 50 uM measured after 24 hrs; type: functional, cell-based
[11] = system: Mus musculus; experiment: Protection against C57BL/6 mouse assessed as increase in LPS-induced colonic temperature at 1.8 mg/kg, ip for 30 mins followed by LPS addition measured from 130 to 360 mins; type: functional, organism-based; conditions: time 160-390 min

| SMILES | IC50 ([1]; read-out: IC50) [µM] | IC50 ([2]; read-out: IC50) [µM] | also measured |
| --- | --- | --- | --- |
| O=C1/C(=C/c2ccccn2)CCc2cc(O)ccc21 | 32.1 | 65.9 | – |
| O=C1/C(=C/c2c[nH]c3ccccc23)CCc2cc(O)ccc21 | 60.7 | 210 | – |
| CN(C)c1ccc(/C=C2\CCc3cc(O)ccc3C2=O)cc1 | 25.7 | 39.7 | – |
| COc1cc(/C=C2\CCc3cc(OC)c(OC)cc3C2=O)ccc1O | – | 104 | IC50 [1]: Not Active |
| Cc1ccc(/C=C2\CCc3cc(O)ccc3C2=O)cc1 | 51.5 | 71.4 | – |
| COc1ccc2c(c1)C(=O)/C(=C/c1cccc(O)c1O)C2 | 9.88 | 17 | – |
| O=C1/C(=C/c2cccnc2)CCc2cc(O)ccc21 | 72.6 | 33.3 | – |
| COc1cc(/C=C2\CCc3cc(O)ccc3C2=O)cc(OC)c1OC | 64.7 | 484 | – |
| COc1ccc(/C=C2\Cc3ccccc3C2=O)cc1O | 4.95 | 1.32 | Activity [3]: inactive; Activity [4]: Active; Activity [5]: Active; Activity [6]: 80.46% |
| O=C1/C(=C/c2cccc(O)c2)CCc2ccccc21 | 25.4 | 35.9 | – |
| COc1cc(/C=C2\CCc3ccccc3C2=O)ccc1O | 51.1 | – | – |
| COc1ccc2c(c1)CC/C(=C\c1ccccc1)C2=O | 48.9 | 126 | – |
| O=C1/C(=C/c2ccccc2)CCc2cc(O)ccc21 | 2.04 | 1.99 | Activity [7]: Active; Activity [8]: inactive; Activity [4]: Active; Activity [9]: ~35%; Activity [5]: Active; Activity [10]: inactive |
| O=C1/C(=C/c2ccc(O)cc2)Cc2ccccc21 | 0.88 | 1.22 | Activity [3]: inactive; Activity [4]: Active; Activity [5]: Active; Activity [10]: inactive |
| O=C1/C(=C/c2ccc(O)cc2)COc2ccccc21 | 127 | 72.7 | – |
| O=C1/C(=C/c2ccc(O)cc2)CS(=O)(=O)c2ccccc21 | 33.4 | 102 | – |
| O=C1/C(=C/c2ccccc2O)CCc2cc(O)ccc21 | 39.1 | 50.2 | – |
| O=C1/C(=C/c2cccc(O)c2O)Cc2ccccc21 | 2.05 | 39.3 | – |
| COc1cc(/C=C2\CCc3cc(O)ccc3C2=O)ccc1O | 30.4 | 30.9 | – |
| O=C1/C(=C/C=C/c2ccccc2)CCc2cc(O)ccc21 | 35.2 | – | IC50 [2]: Not Active |
| COc1ccc2c(c1)C(=O)/C(=C/c1ccc(O)c(OC)c1)C2 | 19.8 | 38.3 | – |
| O=C1/C(=C/c2ccc(O)cc2)CCCc2ccccc21 | 67.2 | 13.8 | – |
| O=C1/C(=C/c2ccccc2)COc2cc(O)ccc21 | 42.7 | 23.4 | – |
| COc1ccc2c(c1)CC/C(=C\c1ccc(C)cc1)C2=O | – | 2620 | IC50 [1]: Not Active |
| COc1ccc2c(c1)CC/C(=C\c1cccnc1)C2=O | 63.4 | 81.4 | – |

| SMILES | IC50 ([1]; read-out: IC50) [µM] | IC50 ([2]; read-out: IC50) [µM] | also measured |
| --- | --- | --- | --- |
| COc1ccc2c(c1)C/C(=C\c1cccc(O)c1O)C2=O | 67.3 | 28.9 | – |
| N#Cc1ccc(/C=C2\CCc3cc(O)ccc3C2=O)cc1 | 68 | – | IC50 [2]: Not Active |
| COc1ccc2c(c1)CC/C(=C\c1ccc(O)c(O)c1)C2=O | 78 | 132 | – |
| O=C1/C(=C/c2ccc(O)cc2)COc2cc(O)ccc21 | 1.54 | 8.72 | Activity [7]: Active; Activity [3]: inactive; Activity [4]: Active; Activity [5]: Active; Activity [10]: inactive |
| COc1cc(/C=C2\Cc3ccccc3C2=O)ccc1O | 96.5 | 14.5 | – |
| O=C1/C(=C/c2ccccc2O)CCc2ccccc21 | 29.8 | 1160 | – |
| O=C1/C(=C/c2ccc(O)cc2)CCc2ccccc21 | 49.2 | 1.94 | Activity [11]: Active; Activity [4]: Active; Activity [9]: ~35%; Activity [5]: Active; Activity [10]: inactive |
| O=C1/C(=C/c2ccc(O)c(O)c2)Cc2ccccc21 | 12.9 | – | IC50 [2]: Not Active |
| O=C1/C(=C/c2ccc[nH]2)CCc2cc(O)ccc21 | 162 | 81.3 | – |
| CCN(CC)CCOc1ccc(/C=C2\CCc3cc(O)ccc3C2=O)cc1 | 8.75 | 41.3 | – |
| COc1ccc2c(c1)CC/C(=C\c1ccc(O)c(OC)c1)C2=O | 49.2 | 53 | – |
| O=C1/C(=C/c2cc(O)cc(O)c2)CCc2ccccc21 | 65 | 24.9 | – |
| O=C1/C(=C/c2ccc(O)cc2)CCc2cc(O)ccc21 | 23.9 | – | IC50 [2]: Not Active |
| COc1ccc2c(c1)C(=O)/C(=C/c1ccc(OC)c(O)c1)C2 | 204 | 73.8 | – |
| O=C1/C(=C/c2ccccc2O)Cc2ccccc21 | 40.7 | 401 | – |
| COc1ccc(/C=C2\CCc3cc(O)ccc3C2=O)cc1 | 67.2 | 44 | – |
| O=C1/C(=C/c2cccc(O)c2)CCc2cc(O)ccc21 | 19.6 | 111 | – |
| CC(C)c1ccc(/C=C2\CCc3cc(O)ccc3C2=O)cc1 | 2.12 | 4.43 | – |
| COc1ccc2c(c1)CC/C(=C\c1ccncc1)C2=O | 58.8 | 107 | – |
| COc1ccc2c(c1)CC/C(=C\c1ccc(O)cc1)C2=O | 2.99 | 2.98 | – |
| O=C1/C(=C/c2ccc3c(c2)OCO3)CCc2cc(O)ccc21 | 22 | 65.8 | – |
| O=C1/C(=C/c2ccc(O)cc2)CSc2ccccc21 | 99.3 | 827 | – |
| O=C1/C(=C/c2cccs2)CCc2cc(O)ccc21 | 51 | 6.46 | – |
| O=C1/C(=C/c2ccco2)CCc2cc(O)ccc21 | 31.4 | 38.2 | – |
